Results from US20240317756A1, “INHIBITORS OF BRUTON'S TYROSINE KINASE” (Pharmacyclics LLC, priority 2006, published 2024).
Each block holds one compound with its values, some of them ahead of it.

Assays:
BTK = BTK (Homo sapiens (Human), UniProt Q06187); assay: in vitro HotSpot kinase assay, BTK; type: biochemical; details: Table 2, 1 uM ATP, one hour incubation with inhibitor
[1] = test system: pERK and BCR pathway phosphorylation in DOHH2 cells; assay: BCR signal transduction pathway phosphorylation, DOHH2; type: cell-based; details: unstimulated DOHH2 cells; read-out: IC50 for decrease of pERK levels
From the text: To identify biomarkers that correlate with response to Compound 1, phosphorylation events in the BCR signal transduction pathway were investigated.
However, when we examined basal phosphorylation levels, we found higher basal phosphorylation in DOHH2 compared to Ramos, with phospho-ERK in particular indicating higher levels of basal or tonic signaling in DOHH2.

Egr-1 = assay: expression of ERK transcriptional target Egr-1; type: cell-based; details: 1 uM
[2] = test system: lymphoma cell line WSU-DLCL2; assay: BCR cross-linking by anti-IgG in WSU-DLCL2; type: cell-based; details: WSU-DLCL2, anti-IgG 30 ug/ml
TEC = TEC (Homo sapiens (Human), UniProt P42680); assay: in vitro HotSpot kinase assay, TEC; type: biochemical; details: purified enzymes, 33P-ATP, 1 uM ATP
HER2 = HER2 (Homo sapiens (Human), UniProt P04626); assay: in vitro HotSpot kinase assay, HER2; type: biochemical; details: purified enzymes, 33P-ATP, 1 uM ATP
HER4 = HER4 (Homo sapiens (Human), UniProt Q15303); assay: in vitro HotSpot kinase assay, HER4; type: biochemical; details: purified enzymes, 33P-ATP, 1 uM ATP
From the text: (§1) Table 1 is a table showing the degree of inhibition of a panel of kinases for two example compounds. […] Thus, subtle modifications in the linker moiety and the Michael acceptor moiety are important for the design of selective ACK inhibitors.

BLK = BLK (Homo sapiens (Human), UniProt P51451); assay: in vitro HotSpot kinase assay, BLK; type: biochemical; details: purified enzymes, 33P-ATP, 1 uM ATP
C-src = C-src (Homo sapiens (Human), UniProt P12931); assay: in vitro HotSpot kinase assay, C-src; type: biochemical; details: purified enzymes, 33P-ATP, 1 uM ATP
From the text: as §1

FGR = FGR (Homo sapiens (Human), UniProt P09769); assay: in vitro HotSpot kinase assay, FGR; type: biochemical; details: purified enzymes, 33P-ATP, 1 uM ATP
Fyn = Fyn (Homo sapiens (Human), UniProt P06241); assay: in vitro HotSpot kinase assay, Fyn; type: biochemical; details: purified enzymes, 33P-ATP, 1 uM ATP
Lyn = Lyn (Homo sapiens (Human), UniProt P07948); assay: in vitro HotSpot kinase assay, Lyn; type: biochemical; details: purified enzymes, 33P-ATP, 1 uM ATP
YES = YES (Homo sapiens (Human), UniProt P07947); assay: in vitro HotSpot kinase assay, YES; type: biochemical; details: purified enzymes, 33P-ATP, 1 uM ATP
ABL = ABL (Homo sapiens (Human), UniProt P00519); assay: in vitro HotSpot kinase assay, ABL; type: biochemical; details: purified enzymes, 33P-ATP, 1 uM ATP
Brk = Brk (Homo sapiens (Human), UniProt Q13882); assay: in vitro HotSpot kinase assay, Brk; type: biochemical; details: purified enzymes, 33P-ATP, 1 uM ATP
CSK = CSK (Homo sapiens (Human), UniProt P41240); assay: in vitro HotSpot kinase assay, CSK; type: biochemical; details: purified enzymes, 33P-ATP, 1 uM ATP
FER = FER (Homo sapiens (Human), UniProt P16591); assay: in vitro HotSpot kinase assay, FER; type: biochemical; details: purified enzymes, 33P-ATP, 1 uM ATP
SYK = SYK (Homo sapiens (Human), UniProt P43405); assay: in vitro HotSpot kinase assay, SYK; type: biochemical; details: purified enzymes, 33P-ATP, 1 uM ATP
From the text: as §1

lymphoma cell line DOHH2 = assay: DOHH2 cell proliferation assay (Alamar Blue); type: cell-based
Description: After 72 hours, cell number was measured using Alamar Blue using manufacturer's protocol. A dilution series of untreated cells was run in parallel to verify that the Alamar Blue assay reliably reflected cell number and that growth conditions were not limiting. […] GI50 values were confirmed in two or more separate experiments for each cell line.
Analogs are generated that are Btk inhibitors and that are cytotoxic to the lymphoma cell line DOHH2. For the DOHH2 cell proliferation assay, cells were seeded in 96-well plates in standard growth media (RPMI+10% fetal calf serum) and compounds were added in a 9-point dilution series ranging from 10 uM to 0.04 uM with DMSO at 0.1% final concentration in all wells. After 72 hours, cell number was measured using Alamar Blue using manufacturer's protocol. A dilution series of untreated cells was run in parallel to verify that the Alamar Blue assay reliably reflected cell number and that growth conditions were not limiting.

[3] = test system: collagen-induced arthritis; assay: collagen-induced arthritis in the mouse; type: in vivo, Male DBA/lOlaHsd mice; details: 12.5 mg/kg or 50 mg/kg each day of an 11-day period
Description: […]. […] Dexamethasone was included as a positive control. Paw inflammation was scored from 0-5 and averaged across all paws from all animals for each group in the study.
. After paw inflammation was established, animals were randomized and Compound lor vehicle was dosed orally once per day starting at day 1. Paw inflammation was scored from 0-5 and averaged across all paws from all animals for each group in the study. […] Dexamethasone was included as a positive control.

EGFR = EGFR (Homo sapiens (Human), UniProt P00533); assay: in vitro HotSpot kinase assay, EGFR; type: biochemical; details: Table 2, 1 uM ATP, one hour incubation with inhibitor
[4] = test system: Tec family kinases, including Btk, and Src family kinases; assay: in vitro profiling against a panel of greater than 100 kinases; type: biochemical
From the text: By way of example only and in some embodiments, the observed potency, selectivity, and cell permeability of compounds such as Compound 2 are appropriate to incorporate these molecules into a Kinase-targeted, activity based probe that allows direct visualization of Kinase activity in intact cells. […] Without limiting the scope of the compositions and methods described herein, it is postulated that the structural basis for the selectivity is covalent modification of a non-catalytic cysteine residue (Cys 481 in Btk) that is conserved in the ATP binding pocket of the Tec family and several other kinases.

ITK = ITK (Homo sapiens (Human), UniProt Q08881); assay: in vitro HotSpot kinase assay, ITK; type: biochemical; details: Table 2, 1 uM ATP, one hour incubation with inhibitor
LCK = LCK (Homo sapiens (Human), UniProt P06239); assay: in vitro HotSpot kinase assay, LCK; type: biochemical; details: Table 2, 1 uM ATP, one hour incubation with inhibitor
JAK3 = JAK3 (Homo sapiens (Human), UniProt P52333); assay: in vitro HotSpot kinase assay, JAK3; type: biochemical; details: Table 2, 1 uM ATP, one hour incubation with inhibitor
[5] = glutathione binding assay; details: 5 mM glutathione, 10 μM Btk inhibitor, room temperature, HPLC
Description: A calculated value (e.g (1/Btk IC50)/Glutathione conjugation rate) as shown in the Table 2) is used to compare compounds for their ratio between potency at inhibiting their target and their non-specific binding to other SH groups, such as those in glutathione. […] Calculated ratios such as these are used to quantitatively compare different compounds and select compounds for further study.
For the glutathione binding assays, 5 mM glutathione, 10 μM Btk inhibitor in DMSO (10 μL) and 6 equivalents of N′N′ Diisopropyl ethyl amine were combined in 1 mL potassium phosphate buffer. The mixture was incubated for 0, 15, 60 minutes at room temperature and the reaction was stopped with 10 equivalents of formic acid. 50 μL of each reaction mixture was injected on HPLC (Mobil Phase A: 0.2% formic acid in water, Mobile Phase B: 0.2% formic acid in acetonitrile, HPLC Column: Metasil Basic 3μ, 150×4.6 mm, 10% B, Gradient: 10% to 90% B, Detection: UV/Vis […]). Rate of reaction was reported as nmole GSH conjugate conversion per minute from the normalized ratio for area under the curve from HPLC chromatograms for both GSH conjugate and the parent.

[6] = plasma concentrations after oral dosing of rats; type: in vivo; details: single oral dose 8 mg/kg each in combination
Description: Blood samples were collected at 0.0833 (5 minutes), 0.333 (20 minutes), 1, 3, 6, 9, and 24 hours post-dosing from orally dosed rats.
Male jugular vein cannulated rats were administered a single dose of all test compounds at 8 mg/kg each, in combination by oral gavage. Dose volumes were adjusted based on body weight data collected immediately prior to dosing. Blood samples were collected at 0.0833 (5 minutes), 0.333 (20 minutes), 1, 3, 6, 9, and 24 hours post-dosing from orally dosed rats. The samples were collected into plasma separator Microtainer tubes with anticoagulant (lithium heparin). Plasma samples were prepared by centrifugation (5 min at 5000×g), and at least 100 μL were transferred to storage tubes and stored frozen at −80° C. Plasma samples were thawed and 75 uL aliquots were transferred to centrifuge tubes to which 10 μL aliquots of internal standard solution (1 μg/mL) were added. The samples were not diluted with blank plasma prior to further processing. Soluble proteins were precipitated by the addition of 200 μL of acetonitrile, followed by centrifugation (20 min at 16,000×g). The samples were evaporated to dryness and reconstituted in 200 μL of water containing 0.2% formic acid and 10% methanol. All samples were loaded onto an autosampler maintained at 6° C. and evaluated for concentrations of test compounds using LC-MS/MS.

BTK, sequence (Q06187 whole entry): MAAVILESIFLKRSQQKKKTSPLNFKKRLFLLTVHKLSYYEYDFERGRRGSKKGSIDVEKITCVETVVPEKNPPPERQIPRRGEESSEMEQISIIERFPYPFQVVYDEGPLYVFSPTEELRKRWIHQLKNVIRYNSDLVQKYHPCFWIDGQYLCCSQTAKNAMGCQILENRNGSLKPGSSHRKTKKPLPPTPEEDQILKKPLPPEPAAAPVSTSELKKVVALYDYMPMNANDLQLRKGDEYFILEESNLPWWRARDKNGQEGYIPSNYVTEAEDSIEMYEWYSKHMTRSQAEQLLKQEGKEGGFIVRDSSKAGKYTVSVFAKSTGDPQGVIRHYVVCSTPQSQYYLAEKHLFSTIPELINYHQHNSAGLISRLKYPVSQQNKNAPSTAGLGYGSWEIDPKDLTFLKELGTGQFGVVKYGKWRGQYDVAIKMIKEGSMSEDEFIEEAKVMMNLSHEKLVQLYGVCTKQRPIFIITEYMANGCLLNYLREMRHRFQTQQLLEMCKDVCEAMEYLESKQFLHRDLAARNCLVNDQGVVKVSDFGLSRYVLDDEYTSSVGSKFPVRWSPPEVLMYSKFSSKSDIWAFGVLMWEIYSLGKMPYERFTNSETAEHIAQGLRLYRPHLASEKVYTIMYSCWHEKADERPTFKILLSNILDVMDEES
EGFR, sequence (P00533 25-1210, species assumed): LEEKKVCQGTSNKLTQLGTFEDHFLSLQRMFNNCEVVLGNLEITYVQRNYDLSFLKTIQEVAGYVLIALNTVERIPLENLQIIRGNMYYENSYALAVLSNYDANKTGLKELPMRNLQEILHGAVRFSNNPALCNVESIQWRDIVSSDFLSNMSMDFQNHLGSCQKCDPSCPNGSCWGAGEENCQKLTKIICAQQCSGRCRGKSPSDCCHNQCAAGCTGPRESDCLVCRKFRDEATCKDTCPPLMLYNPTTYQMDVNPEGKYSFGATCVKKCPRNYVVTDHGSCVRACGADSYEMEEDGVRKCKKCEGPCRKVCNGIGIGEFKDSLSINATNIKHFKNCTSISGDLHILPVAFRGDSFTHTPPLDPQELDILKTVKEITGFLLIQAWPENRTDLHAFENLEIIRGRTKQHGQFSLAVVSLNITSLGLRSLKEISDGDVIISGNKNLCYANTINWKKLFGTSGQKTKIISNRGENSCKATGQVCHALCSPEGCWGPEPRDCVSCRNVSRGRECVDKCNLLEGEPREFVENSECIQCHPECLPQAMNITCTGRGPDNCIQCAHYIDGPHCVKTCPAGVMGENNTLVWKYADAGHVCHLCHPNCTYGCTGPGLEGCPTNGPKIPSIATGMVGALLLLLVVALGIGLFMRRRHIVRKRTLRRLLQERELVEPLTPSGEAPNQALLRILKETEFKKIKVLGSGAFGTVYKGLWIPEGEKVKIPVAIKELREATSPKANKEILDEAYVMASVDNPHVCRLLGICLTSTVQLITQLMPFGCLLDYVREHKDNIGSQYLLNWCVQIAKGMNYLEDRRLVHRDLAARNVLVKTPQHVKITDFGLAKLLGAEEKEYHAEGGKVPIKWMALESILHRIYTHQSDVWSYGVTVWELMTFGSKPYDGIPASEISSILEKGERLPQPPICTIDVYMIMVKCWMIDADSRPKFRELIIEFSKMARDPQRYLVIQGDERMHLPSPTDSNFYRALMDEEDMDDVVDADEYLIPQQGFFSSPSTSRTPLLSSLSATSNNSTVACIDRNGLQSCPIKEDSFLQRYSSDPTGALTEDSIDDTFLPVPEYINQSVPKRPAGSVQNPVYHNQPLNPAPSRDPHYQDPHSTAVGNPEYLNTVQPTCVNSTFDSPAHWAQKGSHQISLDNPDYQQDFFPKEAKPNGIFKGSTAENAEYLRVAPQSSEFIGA
JAK3, sequence (P52333 whole entry, species assumed): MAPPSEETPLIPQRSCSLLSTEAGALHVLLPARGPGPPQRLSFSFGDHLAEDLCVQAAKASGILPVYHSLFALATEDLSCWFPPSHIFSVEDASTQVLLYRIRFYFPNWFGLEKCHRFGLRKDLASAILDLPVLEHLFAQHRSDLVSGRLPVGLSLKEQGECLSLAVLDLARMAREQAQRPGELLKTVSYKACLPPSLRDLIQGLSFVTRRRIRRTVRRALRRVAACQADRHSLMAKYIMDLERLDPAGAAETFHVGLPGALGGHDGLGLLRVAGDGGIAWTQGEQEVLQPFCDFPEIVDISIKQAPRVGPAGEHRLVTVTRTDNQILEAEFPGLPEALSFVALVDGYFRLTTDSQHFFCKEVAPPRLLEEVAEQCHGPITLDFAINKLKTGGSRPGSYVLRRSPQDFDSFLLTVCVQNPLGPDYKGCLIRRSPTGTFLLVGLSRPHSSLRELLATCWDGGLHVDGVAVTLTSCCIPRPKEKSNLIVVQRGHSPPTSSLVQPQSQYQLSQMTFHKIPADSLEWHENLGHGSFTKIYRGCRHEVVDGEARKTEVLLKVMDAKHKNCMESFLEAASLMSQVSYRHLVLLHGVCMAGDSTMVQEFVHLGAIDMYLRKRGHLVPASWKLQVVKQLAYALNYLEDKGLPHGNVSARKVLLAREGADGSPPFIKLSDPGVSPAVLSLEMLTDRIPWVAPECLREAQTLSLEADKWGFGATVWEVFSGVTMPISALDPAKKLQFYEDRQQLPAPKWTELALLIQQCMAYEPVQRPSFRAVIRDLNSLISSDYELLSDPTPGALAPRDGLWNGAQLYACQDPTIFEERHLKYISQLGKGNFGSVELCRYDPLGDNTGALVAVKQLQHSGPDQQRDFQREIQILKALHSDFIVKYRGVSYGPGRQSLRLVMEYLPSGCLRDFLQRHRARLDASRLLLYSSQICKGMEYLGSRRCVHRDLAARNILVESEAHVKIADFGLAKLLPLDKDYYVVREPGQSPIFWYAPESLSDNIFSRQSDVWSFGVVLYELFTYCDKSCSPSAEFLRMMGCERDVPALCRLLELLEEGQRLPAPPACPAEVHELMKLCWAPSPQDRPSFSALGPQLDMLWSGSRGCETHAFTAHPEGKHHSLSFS
LCK, sequence (P06239 whole entry, species assumed): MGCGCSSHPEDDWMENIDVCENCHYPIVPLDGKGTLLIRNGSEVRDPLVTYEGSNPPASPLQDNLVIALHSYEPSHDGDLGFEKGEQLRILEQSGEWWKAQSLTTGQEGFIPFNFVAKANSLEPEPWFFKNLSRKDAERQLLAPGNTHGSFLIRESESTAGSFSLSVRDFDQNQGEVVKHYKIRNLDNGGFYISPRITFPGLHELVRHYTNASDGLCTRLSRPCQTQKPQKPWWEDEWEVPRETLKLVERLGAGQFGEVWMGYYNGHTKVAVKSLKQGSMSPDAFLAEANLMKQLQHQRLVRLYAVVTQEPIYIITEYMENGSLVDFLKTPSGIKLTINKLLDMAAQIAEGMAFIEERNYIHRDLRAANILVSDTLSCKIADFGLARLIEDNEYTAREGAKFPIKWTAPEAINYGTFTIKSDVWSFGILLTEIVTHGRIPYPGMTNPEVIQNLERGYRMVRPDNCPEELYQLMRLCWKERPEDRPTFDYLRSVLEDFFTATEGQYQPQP
ITK, sequence (Q08881 whole entry, species assumed): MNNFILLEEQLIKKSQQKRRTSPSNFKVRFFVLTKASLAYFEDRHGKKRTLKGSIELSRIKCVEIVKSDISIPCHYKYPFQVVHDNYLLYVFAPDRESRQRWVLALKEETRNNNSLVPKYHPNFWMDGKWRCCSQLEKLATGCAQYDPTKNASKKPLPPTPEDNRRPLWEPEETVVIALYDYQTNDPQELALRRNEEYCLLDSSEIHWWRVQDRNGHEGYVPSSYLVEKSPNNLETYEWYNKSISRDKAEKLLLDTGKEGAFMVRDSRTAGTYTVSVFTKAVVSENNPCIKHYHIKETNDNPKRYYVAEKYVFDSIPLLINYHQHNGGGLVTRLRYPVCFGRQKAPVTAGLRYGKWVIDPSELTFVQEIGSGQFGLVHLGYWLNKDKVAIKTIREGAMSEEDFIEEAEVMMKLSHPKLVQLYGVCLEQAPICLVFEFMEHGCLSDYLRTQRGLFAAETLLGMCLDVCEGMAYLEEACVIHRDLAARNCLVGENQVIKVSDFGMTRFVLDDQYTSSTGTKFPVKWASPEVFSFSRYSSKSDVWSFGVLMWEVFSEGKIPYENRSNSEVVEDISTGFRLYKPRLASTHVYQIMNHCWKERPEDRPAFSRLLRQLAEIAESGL
YES, sequence (P07947 whole entry, species assumed): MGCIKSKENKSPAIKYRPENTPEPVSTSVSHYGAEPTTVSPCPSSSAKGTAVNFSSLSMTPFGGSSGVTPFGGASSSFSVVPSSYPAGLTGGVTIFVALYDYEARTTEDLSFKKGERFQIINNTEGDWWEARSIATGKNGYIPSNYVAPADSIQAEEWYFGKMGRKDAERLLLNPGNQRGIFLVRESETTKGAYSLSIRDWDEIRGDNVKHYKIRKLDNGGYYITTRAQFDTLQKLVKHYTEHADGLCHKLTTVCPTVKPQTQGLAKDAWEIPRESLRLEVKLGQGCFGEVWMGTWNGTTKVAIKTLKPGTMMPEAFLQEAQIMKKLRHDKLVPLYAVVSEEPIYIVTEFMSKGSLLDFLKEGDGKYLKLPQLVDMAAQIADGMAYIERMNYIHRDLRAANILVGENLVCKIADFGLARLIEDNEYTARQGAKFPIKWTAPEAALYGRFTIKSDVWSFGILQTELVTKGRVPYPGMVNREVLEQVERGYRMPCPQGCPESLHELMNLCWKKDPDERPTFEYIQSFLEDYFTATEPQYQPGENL

Compound: Nc1ncnc2c1c(-c1ccc(Oc3ccccc3)cc1)nn2[C@@H]1CCCCN1C(=O)/C=C/c1c[nH]cn1 [Compound 4]
IC50 (BTK): 0.0222 µM
IC50 [1]: < 0.01 µM
time to reduced Egr-1 expression (Egr-1): ≤ 1 h
maximal downregulation of Egr-1 expression (Egr-1; achieved by 4 hr): 10 fold
inhibition of pERK under BCR cross-linking [2]: overcomes inhibition of pERK

Compound: CN(C)C/C=C/C(=O)N1CCC[C@@H](n2nc(-c3ccc(Oc4ccccc4)cc3)c3c(N)ncnc32)C1 [Compound 2]
IC50 (BTK): 0.0011 µM
IC50 (EGFR): 0.0488 µM
GI50 (lymphoma cell line DOHH2; 72 hours): 0.32 µM
potency and selectivity in kinase panel [4]: highly potent and selective inhibitor

The next lines start with results.

IC50 (TEC): 0.108 µM
IC50 (HER2): 1.54 µM
IC50 (HER4): 0.0032 µM
IC50 (BLK): 0.0002 µM
IC50 (C-src): 0.0143 µM
IC50 (FGR): 0.0004 µM
IC50 (Fyn): 0.0071 µM
IC50 (Lyn): 0.0012 µM
IC50 (YES): 0.0008 µM
IC50 (ABL): 0.0323 µM
IC50 (Brk): 0.0033 µM
IC50 (CSK): 0.0024 µM
IC50 (FER): 3.35 µM
IC50 (SYK): > 10 µM
GI50 (lymphoma cell line DOHH2; 72 hours): 0.011 µM
Compound: C=CC(=O)N[C@H]1CC[C@@H](n2nc(-c3ccc(Oc4ccccc4)cc3)c3c(N)ncnc32)CC1 [Compound 9]
paw inflammation [3]: reduced the increase in paw inflammation

IC50 (BTK): 0.0063 µM
IC50 (ITK): 6.12 µM
IC50 (EGFR): 0.269 µM
IC50 (LCK): 0.0026 µM
IC50 (JAK3): > 10 µM
Glutathione Conj Rate [5]: 0.01 nmol/min
GI50 (lymphoma cell line DOHH2; Homo sapiens, DOHH-2, 72 hours): 0.317 µM
in vivo half-life [6]: significantly longer in vivo half-life
Compound: CN(C)C/C=C/C(=O)N1CCC(n2nc(-c3ccc(Oc4ccccc4)cc3)c3c(N)ncnc32)CC1 [Compound 7, (E)-1-(4-(4-amino-3-(4-phenoxyphenyl)-1H-pyrazolo[3,4-d]pyrimidin-1-yl)piperidin-1-yl)-4-(dimethylamino)but-2-en-1-one]

IC50 (BTK): 0.00133 µM
IC50 (ITK): 14.3 µM
IC50 (EGFR): 0.698 µM
IC50 (LCK): 0.00597 µM
IC50 (JAK3): > 10 µM
Glutathione Conj Rate [5]: 0.004361 nmol/min
GI50 (lymphoma cell line DOHH2; 72 hours): > 10 µM
in vivo half-life [6]: short half-life in vivo
Compound: CN(C)C/C=C/C(=O)N1CCC[C@H]1Cn1nc(-c2ccc(Oc3ccccc3)cc2)c2c(N)ncnc21 [Compound 12, (E)-1-((S)-2-((4-amino-3-(4-phenoxyphenyl)-1H-pyrazolo[3,4-d]pyrimidin-1-yl)methyl)pyrolidin-1-yl)-4-(dimethylamino)but-2-en-1-one]
